≈ marks a conversion by molar mass, not a printed value.
Key:
Assay in all cases: ≥ marks a high value that may be exact or a test limit, other limits are often not marked, values filed in µg/mL are converted to µM
[1] = test system: Pseudomonas syringae pv. syringae DSM 10604
[2] = test system: Pseudomonas syringae pv. tomato DC3000
[3] = test system: Clavibacter michiganensis subsp. michiganensis DSM 46294
[4] = test system: Pectobacterium carotovorum subsp. carotovorum DSM 30168
[5] = test system: Xanthomonas vesicatoria DSM 50861
[6] = test system: Pseudomonas corrugata DSM 7228
[7] = test system: Listeria monocytogenes LO28
[8] = test system: Cronobacter sakazakii DPC 6440
[9] = test system: Candida parapsilosis ATCC 22019
[10] = test system: Candida albicans ATCC 24433
[11] = test system: Botrytis cinerea
[12] = test system: Escherichia coli ATCC 11775
[13] = test system: Candida albicans ATCC 10231
[14] = test system: Staphylococcus aureus ATCC 12600
[15] = test system: Staphylococcus aureus MR
[16] = test system: Staphylococcus aureus ATCC 25923
[17] = test system: Candida albicans
[18] = test system: Proteus vulgaris
[19] = test system: Bacillus subtilis KCTC 1918
[20] = test system: Bacillus megaterium KCTC 1096
[21] = test system: Pseudomonas aeruginosa KCTC 1637
[22] = test system: Staphylococcus aureus KCTC 1621
[23] = test system: Escherichia coli KCTC 1682
[24] = test system: Escherichia coli ATCC 25922
[25] = test system: Staphylococcus epidermidis ATCC 12228
[26] = test system: Lactococcus lactis AS1.1690
[27] = test system: Bacillus cereus AS1.126
[28] = test system: Pseudomonas aeruginosa CGMCC 1.860
[29] = test system: Enterococcus faecalis CGMCC 1.595
[30] = test system: Staphylococcus aureus AS1.72
[31] = test system: Enterococcus faecium CGMCC 1.2334
[32] = test system: Escherichia coli AS1.349

Compound `CC(C)C[C@H](NC(=O)[C@H](CCCN=C(N)N)NC(=O)[C@H](CCCCN)NC(=O)[C@H](Cc1ccccc1)NC(=O)[C@H](Cc1ccccc1)NC(=O)[C@H](CCCCN)NC(=O)[C@H](Cc1ccccc1)NC(=O)[C@H](CCCCN)NC(=O)[C@H](CCCCN)NC(=O)[C@H](CCCCN)NC(=O)[C@@H](N)CCCN=C(N)N)C(=O)N[C@@H](Cc1ccccc1)C(N)=O` [RKKKFKFFKRLF] has an MIC [1] of 0.0598 µM (≈ 0.1 µg/mL), an MIC [2] of 5.98 µM (≈ 9.99 µg/mL) and an MIC [3] of 0.299 µM (≈ 0.5 µg/mL). The MIC [4] was 5.98 µM (≈ 9.99 µg/mL), the MIC [5] was 0.299 µM (≈ 0.5 µg/mL) and the MIC [6] was 0.149 µM (≈ 0.25 µg/mL).
With `CC[C@H](C)[C@H](NC(=O)[C@@H](N)Cc1c[nH]c2ccccc12)C(=O)N[C@@H](CCC(N)=O)C(=O)N1CCC[C@H]1C(=O)N[C@@H](CCCCN)C(=O)N[C@H](C(=O)N[C@@H](CCCCN)C(=O)N[C@H](C(=O)N[C@H](C(=O)N1CCC[C@H]1C(=O)N[C@@H](Cc1ccc(O)cc1)C(=O)N[C@H](C(=O)N[C@@H](C)C(=O)N[C@@H](Cc1ccc(O)cc1)C(=O)N[C@@H](CC(C)C)C(=O)O)C(C)C)[C@@H](C)CC)C(C)C)[C@@H](C)O` [WIQPKTKVIPYVAYL] the MIC [7] was ≥ 156 µM and the MIC [8] was ≥ 625 µM.
In the case of `CC[C@H](C)[C@H](NC(=O)[C@H](CC(C)C)NC(=O)[C@H](CCC(=O)O)NC(=O)[C@H](CO)NC(=O)[C@H](CCCN=C(N)N)NC(=O)[C@@H](N)CO)C(=O)N[C@H](C(=O)N[C@@H](Cc1cnc[nH]1)C(=O)N[C@@H](CCC(N)=O)C(=O)N[C@@H](CCCN=C(N)N)C(=O)N[C@@H](CC(C)C)C(=O)N[C@@H](Cc1ccccc1)C(N)=O)C(C)C` [SRSELIVHQRLF], the MIC [9] is reported as ≥ 269 µM and the MIC [10] is reported as ≥ 269 µM.
For `CC[C@H](C)[C@H](NC(=O)[C@@H]1CCCN1C(=O)[C@@H]1CCCN1C(=O)[C@@H](NC(=O)[C@H](Cc1cnc[nH]1)NC(=O)[C@@H](N)C(C)C)C(C)C)C(=O)N[C@H]1CSSC[C@@H](C(=O)N[C@@H](CCCN=C(N)N)C(=O)N[C@@H](CCCCN)C(=O)O)NC(=O)[C@H](CCC(=O)O)NC(=O)[C@H](CCCN=C(N)N)NC(=O)[C@H](Cc2cnc[nH]2)NC(=O)[C@H](CO)NC1=O` [VHVPPICSHRECRK], the MIC [11] was ≥ 200 µM, the MIC [12] was ≥ 200 µM and the MIC [13] was > 200 µM. The MIC [14] was ≥ 200 µM.
Work on `CC[C@H](C)[C@@H]1NC(=O)[C@H](CCC(N)=O)NC(=O)[C@H](CCC(=O)O)NC(=O)[C@H](CCC(=O)O)NC(=O)[C@H](CCCCN)NC(=O)CNC(=O)[C@H](CC(C)C)NC(=O)[C@@H]2CSSC[C@@H](C(=O)N[C@@H](CCCN=C(N)N)C(=O)N[C@@H](CCCCN)C(=O)N[C@@H](CCCCN)C(=O)N[C@@H](CCCCN)C(=O)O)NC(=O)[C@@H]3CSSC[C@H](NC(=O)[C@H](Cc4ccccc4)NC(=O)[C@H](Cc4ccccc4)NC(=O)[C@H](CCCCN)NC(=O)[C@H](CCCN=C(N)N)NC(=O)[C@H](CC(C)C)NC(=O)[C@@H](NC(=O)[C@H](CCCCN)NC(=O)[C@@H]4CCCN4C(=O)[C@H](CC(C)C)NC(=O)[C@@H](N)Cc4ccccc4)[C@@H](C)O)C(=O)N[C@@H](CCCN=C(N)N)C(=O)N[C@@H]([C@@H](C)CC)C(=O)N[C@@H](CCCN=C(N)N)C(=O)NCC(=O)NCC(=O)N[C@@H](CCCN=C(N)N)C(=O)N[C@@H](CSSC[C@H](NC(=O)[C@H](CCCN=C(N)N)NC(=O)CNC1=O)C(=O)N[C@@H](CO)C(=O)N[C@@H](CC(N)=O)C(=O)N[C@@H](CO)C(=O)NCC(=O)N[C@@H](CCCN=C(N)N)C(=O)N[C@@H](CCCCN)C(=O)N3)C(=O)N[C@@H](C)C(=O)N[C@@H](C(C)C)C(=O)N[C@@H](CC(C)C)C(=O)N[C@@H](CC(N)=O)C(=O)N2` [FLPKTLRKFFCRIRGGRCAVLNCLGKEEQIGRCSNSGRKCCRKKK] yielded an MIC [15] of 4.82 µM (≈ 25 µg/mL), an MIC [10] of 2.41 µM (≈ 12.5 µg/mL) and an MIC [16] of 0.385 µM (≈ 2 µg/mL). It also gave an MIC [17] of 2.41 µM (≈ 12.5 µg/mL).
With `CC[C@H](C)[C@H](NC(=O)[C@H](CCCCN)NC(=O)[C@H](CCCCN)NC(=O)[C@H](Cc1ccccc1)NC(=O)[C@@H](N)Cc1c[nH]c2ccccc12)C(=O)N1CCC[C@H]1C(=O)N[C@@H](CCCCN)C(=O)N[C@@H](Cc1ccccc1)C(=O)N[C@@H](CC(C)C)C(=O)N[C@@H](Cc1cnc[nH]1)C(=O)N[C@@H](CC(C)C)C(=O)N[C@@H](CC(C)C)C(=O)N[C@@H](CCCCN)C(=O)N[C@@H](CCCCN)C(=O)N[C@@H](Cc1ccccc1)C(N)=O` [WFKKIPKFLHLLKKF] the MIC [18] was 12.5 µM (≈ 24.7 µg/mL), the MIC [19] was 0.78 µM (≈ 1.54 µg/mL) and the MIC [20] was 0.78 µM (≈ 1.54 µg/mL). The MIC [21] was 1.56 µM (≈ 3.08 µg/mL), the MIC [22] was 3.12 µM (≈ 6.16 µg/mL) and the MIC [23] was 3.12 µM (≈ 6.16 µg/mL).
In the case of `CC[C@H](C)[C@H](NC(=O)[C@H](C)N)C(=O)N[C@@H](CCC(N)=O)C(=O)N1CCC[C@H]1C(=O)N[C@@H](CCCCN)C(=O)N[C@H](C(=O)N[C@@H](CCCCN)C(=O)N[C@H](C(=O)N[C@H](C(=O)N1CCC[C@H]1C(=O)N[C@@H](Cc1ccc(O)cc1)C(=O)N[C@H](C(=O)N[C@@H](CCCN=C(N)N)C(=O)N[C@@H](Cc1ccc(O)cc1)C(=O)N[C@@H](CC(C)C)C(=O)O)C(C)C)[C@@H](C)CC)C(C)C)[C@@H](C)O` [AIQPKTKVIPYVRYL], the MIC [7] is reported as ≥ 78.1 µM and the MIC [8] is reported as ≥ 78.1 µM.
`CC[C@H](C)[C@H](NC(=O)[C@@H](NC(=O)[C@H](CCCCN)NC(=O)[C@@H](NC(=O)[C@H](CCCCN)NC(=O)[C@@H]1CCCN1C(=O)[C@H](CCC(N)=O)NC(=O)[C@@H](NC(=O)[C@@H](N)Cc1c[nH]c2ccccc12)[C@@H](C)CC)[C@@H](C)O)C(C)C)C(=O)N[C@@H](C)C(=O)N[C@@H](Cc1ccc(O)cc1)C(=O)N[C@H](C(=O)N[C@@H](CCCN=C(N)N)C(=O)N[C@@H](Cc1ccc(O)cc1)C(=O)N[C@@H](CC(C)C)C(=O)O)C(C)C` [WIQPKTKVIAYVRYL] was tested, and the MIC [7] was 2.44 µM (≈ 4.58 µg/mL) and the MIC [8] was ≥ 39.1 µM.
For `CC[C@H](C)[C@H](NC(=O)CNC(=O)[C@@H](NC(=O)[C@H](C)NC(=O)[C@@H](NC(=O)[C@H](CCCCN)NC(=O)[C@@H]1CCCN1C(=O)[C@@H](NC(=O)[C@H](CCSC)NC(=O)[C@H](CO)NC(=O)[C@H](Cc1ccccc1)NC(=O)[C@@H](N)Cc1ccccc1)[C@@H](C)CC)[C@@H](C)CC)[C@@H](C)O)C(=O)N[C@@H](C)C(=O)N[C@@H](CO)C(=O)N[C@@H](CC(C)C)C(=O)N[C@H](C(=O)N[C@@H](CCCCN)C(=O)N[C@@H](CC(N)=O)C(=O)N[C@@H](CC(C)C)C(=O)O)C(C)C` [FFSMIPKIATGIASLVKNL], the MIC [10] was ≥ 100 µM, the MIC [24] was > 100 µM and the MIC [25] was > 100 µM.
With `CC(C)[C@H](NC(=O)[C@H](CCCCN)NC(=O)[C@@H](N)CO)C(=O)N[C@@H](Cc1c[nH]c2ccccc12)C(=O)N[C@@H](CCCN=C(N)N)C(=O)N[C@@H](Cc1cnc[nH]1)C(=O)N[C@@H](Cc1c[nH]c2ccccc12)C(=O)O` [SKVWRHW] the MIC [26] was ≥ 100 µM, the MIC [27] was ≥ 100 µM and the MIC [28] was ≥ 100 µM. For the same compound, the MIC [29] was ≥ 100 µM, the MIC [30] was ≥ 100 µM and the MIC [31] was ≥ 100 µM. For the same compound, the MIC [32] was ≥ 100 µM.

From DBAASP
